In one data set the target is JAK2 (Homo sapiens (Human), UniProt O60674). Briefly: Biochemical kinase assay (33P-ATP filter-binding), JAK2. The text has this: (§1) Biochemical Kinase Assay Protocol (JAK)
(§2) Reaction Procedure: • 1. […] Detected kinase activity by filter-binding method.

For the next data set, the system named is GM-CSF/pSTAT5. Briefly: Cytokine function assay GM-CSF/pSTAT5 in lysed whole blood cells. It counts as cell-based. The settings on record: Whole blood cell, read-out: IC50 GM-CSF. The method, then: (§3) Cytokine Function Assay Protocols for IL-4/pSTAT6 and GM-CSF/pSTAT5
GM-CSF/pSTAT5: • Whole blood from a healthy donor was lysed to remove red blood cells. Cells were plated onto a 96 well plate. Compound was added and incubated for 1 hour (at 37° C.). After 1 hour, cells were stimulated with GM-CSF for 15 minutes. Cells were fixed and stained with anti-pSTAT5 antibody. After staining, cells were read on a Beckman-Coulter CytoFLEX.

Data set [1] in a line: Dog LM (liver microsome) assay. To be noted: Table 3a; predicted clearance as percent of liver blood flow, 1 μM, 1 mg/ml microsomal protein. It counts as in vitro ADME. The essentials: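 Pooled Beagle liver microsomes (1 mg/ml protein), compound 1 μM, Tris pH 7.6 with 5 mM MgCl2, 37 °C, started with 1 mM NADPH; parent loss by LC-MS/MS over several time points.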
A further data set concerns the target PDE4B (Homo sapiens (Human), UniProt Q07343). Briefly: PDE4B inhibition. It counts as biochemical. To be noted: Table 3a.
The next data set concerns IL-4/pSTAT6. The data set is described as follows: Cytokine function assay IL-4/pSTAT6 in PBMC. It counts as cell-based. The settings on record: PBMC, read-out: IC50 IL-4, Table 3a. As to the method: as §3
IL-4/pSTAT6: • PBMC from a healthy donor was plated onto a 96 w plate. Compound was added and incubated for 1 hour (at 37° C.). After 1 hour, cells were stimulated with IL-4 for 15 minutes. Cells were fixed and stained with anti-pSTAT6 antibody. After staining, cells were read on a Beckman-Coulter CytoFLEX.

The next data set has as its target JAK1 (Homo sapiens (Human), UniProt P23458). The data set is described as follows: Biochemical kinase assay (33P-ATP filter-binding), JAK1.
Excerpt: as §1, §2

The subject of a further data set is IL-31. Briefly: Cytokine function assay for IL-31 in DH82 cells. The settings on record: Canis lupus familiaris. It counts as cell-based, canine. As to the method: Cytokine Function Assay Protocol for IL-31
The protocol for the cytokine function assay for IL-31 is set forth below: • 1. […] After 24 hr, wash with 37° C. pre-warmed PBS (100 uL/well). • 3. Add serum-free MEM, 90 uL per well, 2 hr, 37° C. • 4. Add 10 uL 10×IL-31 (40, 10, 2.5 ug/mL) in duplicate, 5 min, 37° C. • 5. Remove medium, add 60 uL lysis buffer per well. Agitate on a plate shaker (˜350 rpm) for 10 min at RT. • 6. […] Add 6 uL Acceptor Mix, cover with aluminum foil, quickly spin at 1000 rpm, shake at 120 rpm for 2 min, then incubate at RT for 1 hr. • 8. Add 6 uL Donor Mix, cover with aluminum foil, quickly spin at 1000 rpm, shake at 120 rpm for 2 min, then incubate at RT for 1 hr. • 9. Measure the fluorescence using EnVision™ plate reader.

[2] abbreviates: DH82, Table 3a, read-out: IC50 IL-31.

SMILES strings stand for the structures. Read-outs that look alike come from different tables or passages of the source.

Chain of JAK2 (O60674 whole entry, species assumed): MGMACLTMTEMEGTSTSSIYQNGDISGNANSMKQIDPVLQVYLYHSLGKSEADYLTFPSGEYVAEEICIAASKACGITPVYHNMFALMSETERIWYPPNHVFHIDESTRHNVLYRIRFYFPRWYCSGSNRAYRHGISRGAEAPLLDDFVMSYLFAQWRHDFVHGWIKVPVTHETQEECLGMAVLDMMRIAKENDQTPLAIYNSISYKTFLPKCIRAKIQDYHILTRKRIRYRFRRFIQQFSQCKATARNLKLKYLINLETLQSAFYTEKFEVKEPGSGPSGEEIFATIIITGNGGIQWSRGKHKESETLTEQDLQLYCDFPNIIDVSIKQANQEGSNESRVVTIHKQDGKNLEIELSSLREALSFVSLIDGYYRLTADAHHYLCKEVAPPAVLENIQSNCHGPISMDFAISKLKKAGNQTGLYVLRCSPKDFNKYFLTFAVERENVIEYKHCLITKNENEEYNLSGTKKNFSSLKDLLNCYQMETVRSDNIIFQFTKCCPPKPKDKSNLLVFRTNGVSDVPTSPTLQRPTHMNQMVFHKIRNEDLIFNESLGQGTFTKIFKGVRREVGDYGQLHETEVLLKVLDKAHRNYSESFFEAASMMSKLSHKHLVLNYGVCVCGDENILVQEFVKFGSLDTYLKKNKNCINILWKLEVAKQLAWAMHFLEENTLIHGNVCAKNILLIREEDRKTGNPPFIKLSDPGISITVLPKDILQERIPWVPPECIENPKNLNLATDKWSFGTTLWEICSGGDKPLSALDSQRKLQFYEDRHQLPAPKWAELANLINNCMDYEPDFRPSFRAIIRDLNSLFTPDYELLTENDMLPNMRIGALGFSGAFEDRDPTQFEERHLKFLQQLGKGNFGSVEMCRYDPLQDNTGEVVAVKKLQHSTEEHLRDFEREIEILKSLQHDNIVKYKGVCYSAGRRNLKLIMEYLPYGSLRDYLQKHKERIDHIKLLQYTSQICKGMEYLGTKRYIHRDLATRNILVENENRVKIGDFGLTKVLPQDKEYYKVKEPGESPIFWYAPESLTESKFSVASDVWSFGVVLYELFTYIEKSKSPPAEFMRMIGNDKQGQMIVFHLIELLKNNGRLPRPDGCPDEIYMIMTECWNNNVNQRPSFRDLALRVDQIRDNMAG
Chain of JAK1 (P23458 whole entry, species assumed): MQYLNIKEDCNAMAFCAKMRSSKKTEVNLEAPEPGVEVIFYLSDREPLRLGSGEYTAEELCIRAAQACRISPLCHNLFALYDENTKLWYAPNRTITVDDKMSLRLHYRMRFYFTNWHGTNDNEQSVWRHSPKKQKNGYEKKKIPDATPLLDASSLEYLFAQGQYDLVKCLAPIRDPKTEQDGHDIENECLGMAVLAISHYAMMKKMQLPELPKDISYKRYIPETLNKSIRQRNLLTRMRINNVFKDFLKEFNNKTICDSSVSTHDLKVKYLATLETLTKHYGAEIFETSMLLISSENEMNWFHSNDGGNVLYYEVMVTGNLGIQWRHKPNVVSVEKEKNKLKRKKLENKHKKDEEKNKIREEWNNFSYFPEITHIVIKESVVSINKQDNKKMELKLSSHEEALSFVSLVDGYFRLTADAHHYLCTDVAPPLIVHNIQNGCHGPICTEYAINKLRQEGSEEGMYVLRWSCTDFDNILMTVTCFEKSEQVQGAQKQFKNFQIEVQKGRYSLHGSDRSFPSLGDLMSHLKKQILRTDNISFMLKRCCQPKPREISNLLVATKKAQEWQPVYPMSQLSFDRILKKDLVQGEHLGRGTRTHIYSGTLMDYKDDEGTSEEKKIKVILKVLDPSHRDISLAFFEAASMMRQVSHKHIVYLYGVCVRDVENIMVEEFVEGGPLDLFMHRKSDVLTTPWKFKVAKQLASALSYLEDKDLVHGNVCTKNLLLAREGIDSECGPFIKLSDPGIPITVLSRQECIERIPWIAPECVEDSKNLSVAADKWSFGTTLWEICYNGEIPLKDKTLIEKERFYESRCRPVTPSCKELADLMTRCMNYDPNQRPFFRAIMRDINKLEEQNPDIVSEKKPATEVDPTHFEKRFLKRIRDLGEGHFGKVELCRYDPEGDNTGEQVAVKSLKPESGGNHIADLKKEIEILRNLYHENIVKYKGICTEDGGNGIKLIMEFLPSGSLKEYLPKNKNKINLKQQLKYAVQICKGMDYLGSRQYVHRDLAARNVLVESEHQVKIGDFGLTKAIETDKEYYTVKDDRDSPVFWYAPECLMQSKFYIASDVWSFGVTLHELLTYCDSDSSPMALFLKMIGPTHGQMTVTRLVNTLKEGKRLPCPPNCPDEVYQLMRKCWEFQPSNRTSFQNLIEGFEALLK
Chain of PDE4B (Q07343 whole entry, species assumed): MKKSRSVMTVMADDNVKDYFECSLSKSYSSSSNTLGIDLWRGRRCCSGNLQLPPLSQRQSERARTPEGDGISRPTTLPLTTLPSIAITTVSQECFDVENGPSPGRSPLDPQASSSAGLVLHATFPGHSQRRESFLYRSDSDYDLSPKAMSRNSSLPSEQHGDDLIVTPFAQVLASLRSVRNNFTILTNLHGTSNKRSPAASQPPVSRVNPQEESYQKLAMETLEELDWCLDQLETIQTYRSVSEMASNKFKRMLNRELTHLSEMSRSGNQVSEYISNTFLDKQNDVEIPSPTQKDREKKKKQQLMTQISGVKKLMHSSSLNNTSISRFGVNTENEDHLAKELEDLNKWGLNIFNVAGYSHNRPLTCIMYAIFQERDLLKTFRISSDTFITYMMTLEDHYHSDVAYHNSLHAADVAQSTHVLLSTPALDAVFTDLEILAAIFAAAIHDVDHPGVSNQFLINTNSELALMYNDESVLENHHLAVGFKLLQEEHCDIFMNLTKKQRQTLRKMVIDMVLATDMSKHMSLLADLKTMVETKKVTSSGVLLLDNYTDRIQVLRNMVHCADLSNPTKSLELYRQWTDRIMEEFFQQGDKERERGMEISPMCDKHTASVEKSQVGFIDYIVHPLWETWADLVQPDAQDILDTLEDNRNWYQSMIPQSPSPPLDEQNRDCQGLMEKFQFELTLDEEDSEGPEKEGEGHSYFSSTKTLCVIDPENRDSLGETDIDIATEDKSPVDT

Turning to `N#CC1CCOCC1Nc1nc(Nc2cc(F)c3c(c2)COB3O)ncc1Cl` (centres unmarked) [Example 050, 3-((5-chloro-2-((7-fluoro-1-hydroxy-1,3-dihydrobenzo[c][1,2]oxaborol-5-yl)amino)pyrimidin-4-yl)amino)tetrahydro-2H-pyran-4-carbonitrile], the 50% inhibitory concentration (IC50) (in general, the midpoint of a concentration-inhibition curve) amounted to 1.2 nM on JAK2 (Table 3a, read-out: IC50 JAK2); 2100 nM with GM-CSF/pSTAT5; 832 nM against PDE4B; 94.8 nM in the data set on IL-4/pSTAT6; 0.2 nM at JAK1 (Table 3a, read-out: IC50 JAK1); 23.9 nM in the data set with IL-31 (setting [2]). Besides, the “Dog LM QH” value in data set [1] is <19.9%.
For `Cc1cnc(Nc2cc(C)c3c(c2)COB3O)nc1N[C@@H]1CCC[C@H]1C#N` (relative stereo) [Example 002, (trans)-2-((2-((1-hydroxy-7-methyl-1,3-dihydrobenzo[c][1,2]oxaborol-5-yl)amino)-5-methylpyrimidin-4-yl)amino)cyclopentane-1-carbonitrile], the IC50 on JAK2 (Table 3a, read-out: IC50 JAK2) is 12.1 nM; in the data set on GM-CSF/pSTAT5 it was 2100 nM; against PDE4B, 832 nM; in the data set with IL-4/pSTAT6, 94.8 nM; on JAK1 (Table 3a, read-out: IC50 JAK1), 0.9 nM; with IL-31 (setting [2]), 23.9 nM. Also, in data set [1], the “Dog LM QH” value is given as <19.9%.
In the case of `Cc1cnc(Nc2cc(C)c3c(c2)COB3O)nc1N[C@@H]1COCC[C@H]1C#N` (relative stereo) [Example 027, (trans)-3-((2-((1-hydroxy-7-methyl-1,3-dihydrobenzo[c][1,2]oxaborol-5-yl)amino)-5-methylpyrimidin-4-yl)amino)tetrahydro-2H-pyran-4-carbonitrile], the IC50 on JAK2 (Table 3a, read-out: IC50 JAK2) was 3.5 nM; with GM-CSF/pSTAT5, 1200 nM; in the data set on IL-4/pSTAT6, 79.9 nM; at JAK1 (Table 3a, read-out: IC50 JAK1) it was 0.6 nM; in the data set on IL-31 (setting [2]), 81.3 nM. Moreover, the “Dog LM QH” value in data set [1] was 30.1%.
With `Cc1cnc(Nc2ccc3c(c2)COB3O)nc1NC1COCCC1C#N` (racemic) [Example 026, (trans)-3-[[2-[(1-hydroxy-3H-2,1-benzoxaborol-5-yl)amino]-5-methyl-pyrimidin-4-yl]amino]tetrahydropyran-4-carbonitrile], the IC50 on JAK2 (Table 3a, read-out: IC50 JAK2) is 7 nM; in the data set with GM-CSF/pSTAT5, 2660 nM; with IL-4/pSTAT6, 91.9 nM; at JAK1 (Table 3a, read-out: IC50 JAK1) it was 0.5 nM; in the data set on IL-31 (setting [2]), 64.6 nM. Moreover, in data set [1], the “Dog LM QH” value is recorded as <19.9%.
For `Cc1cnc(Nc2cc3c(c(C(F)(F)F)c2)B(O)OC3)nc1NC1CCCCC1C#N` (racemic) [Example 011, (trans)-2-((2-((1-hydroxy-7-(trifluoromethyl)-1,3-dihydrobenzo[c][1,2]oxaborol-5-yl)amino)-5-methylpyrimidin-4-yl)amino)cyclohexane-1-carbonitrile], the IC50 is 37.5 nM at JAK2 (Table 3a, read-out: IC50 JAK2); 1150 nM in the data set with GM-CSF/pSTAT5; 159 nM with IL-4/pSTAT6; 0.9 nM on JAK1 (Table 3a, read-out: IC50 JAK1); 33.6 nM with IL-31 (setting [2]). Also, in data set [1], the “Dog LM QH” value is <19.9%.
Turning to `Cc1cc(Nc2ncc(Cl)c(N[C@H]3COCC[C@@H]3C#N)n2)cc2c1B(O)OC2` (single isomer, unassigned) [Example 041a, (trans)-3-[[5-chloro-2-[(1-hydroxy-7-methyl-3H-2,1-benzoxaborol-5-yl)amino]pyrimidin-4-yl]amino]tetrahydropyran-4-carbonitrile], the IC50 at JAK2 (IC50 JAK2, Table 3a) is 3.1 nM; in the data set with GM-CSF/pSTAT5, > 10000 nM; with IL-4/pSTAT6, 47 nM; on JAK1 (IC50 JAK1, Table 3a), 0.8 nM; in the data set with IL-31 (setting [2]), 40 nM. The “Dog LM QH” value in data set [1] is reported as <19.9%.
As to `Cc1cnc(Nc2ccc3c(c2)C(C)(C)OB3O)nc1N[C@@H]1COCC[C@H]1C#N` (relative stereo) [Example 032, (trans)-3-[[2-[(1-hydroxy-3,3-dimethyl-2,1-benzoxaborol-5-yl)amino]-5-methyl-pyrimidin-4-yl]amino]tetrahydropyran-4-carbonitrile], the IC50 amounted to 3.3 nM at JAK2 (Table 3a, read-out: IC50 JAK2); 901 nM with GM-CSF/pSTAT5; 762 nM on PDE4B; 66.7 nM in the data set on IL-4/pSTAT6; 0.6 nM on JAK1 (Table 3a, read-out: IC50 JAK1); 51 nM in the data set on IL-31 (DH82, read-out: IC50 IL-31). Moreover, in data set [1], the “Dog LM QH” value is 42.0%.
On to `Cc1cnc(Nc2cc(F)c3c(c2)COB3O)nc1NC1COCCC1C#N` (racemic) [Example 029, (trans)-3-((2-((7-fluoro-1-hydroxy-1,3-dihydrobenzo[c][1,2]oxaborol-5-yl)amino)-5-methylpyrimidin-4-yl)amino)tetrahydro-2H-pyran-4-carbonitrile], for which the IC50 at JAK2 (Table 3a, read-out: IC50 JAK2) worked out at 9.8 nM; in the data set on GM-CSF/pSTAT5, 2240 nM; against PDE4B, 978 nM; in the data set with IL-4/pSTAT6 it was 58.3 nM; at JAK1 (Table 3a, read-out: IC50 JAK1), 0.2 nM; in the data set on IL-31 (setting [2]) it was 49.5 nM. Further, the “Dog LM QH” value in data set [1] is on record as <19.9%.
Turning to `Cc1cnc(Nc2cc(F)c3c(c2)COB3O)nc1N[C@@H]1COCC[C@H]1C#N` (single isomer, unassigned) [Example 029a, (trans)-3-[[2-[(7-fluoro-1-hydroxy-3H-2,1-benzoxaborol-5-yl)amino]-5-methyl-pyrimidin-4-yl]amino]tetrahydropyran-4-carbonitrile], the IC50 at JAK2 (Table 3a, read-out: IC50 JAK2) was 3.7 nM; in the data set with GM-CSF/pSTAT5 it was 1170 nM; on PDE4B, 381 nM; in the data set on IL-4/pSTAT6 it was 48.8 nM; at JAK1 (Table 3a, read-out: IC50 JAK1), 0.02 nM; in the data set with IL-31 (setting [2]), 19.8 nM. In addition, the “Dog LM QH” value in data set [1] is reported as <19.9%.
With `Cc1cnc(Nc2cc3c(c(C(F)(F)F)c2)B(O)OC3)nc1N[C@H]1CCCC[C@@H]1C#N` (single isomer, unassigned) [Example 011a, (trans)-2-((2-((1-hydroxy-7-(trifluoromethyl)-1,3-dihydrobenzo[c][1,2]oxaborol-5-yl)amino)-5-methylpyrimidin-4-yl)amino)cyclohexane-1-carbonitrile], the IC50 was 11.7 nM on JAK2 (Table 3a, read-out: IC50 JAK2); 1480 nM in the data set with GM-CSF/pSTAT5; 151 nM in the data set on IL-4/pSTAT6; 0.4 nM on JAK1 (Table 3a, read-out: IC50 JAK1); 107 nM with IL-31 (setting [2]). Further, in data set [1], the “Dog LM QH” value is given as <19.9%.
Consider `Cc1cnc(Nc2cc(Cl)c3c(c2)COB3O)nc1NC1CCCC1C#N` (racemic) [Example 003, (trans)-2-((2-((7-chloro-1-hydroxy-1,3-dihydrobenzo[c][1,2]oxaborol-5-yl)amino)-5-methylpyrimidin-4-yl)amino)cyclopentane-1-carbonitrile], for which the IC50 worked out at 40 nM on JAK2 (Table 3a, read-out: IC50 JAK2); 1430 nM with GM-CSF/pSTAT5; 106 nM in the data set with IL-4/pSTAT6; 0.7 nM on JAK1 (Table 3a, read-out: IC50 JAK1); 21.2 nM with IL-31 (setting [2]). Also, in data set [1], the “Dog LM QH” value was <19.9%.
As for `Cc1cnc(Nc2cc(Cl)c3c(c2)COB3O)nc1NC1CCCC[C@@H]1C#N` (single isomer, unassigned) [Example 010a, (trans)-2-[[2-[(7-chloro-1-hydroxy-3H-2,1-benzoxaborol-5-yl)amino]-5-methyl-pyrimidin-4-yl]amino]cyclohexane-1-carbonitrile], the IC50 on JAK2 (Table 3a, read-out: IC50 JAK2) stood at 4 nM; with GM-CSF/pSTAT5, 469 nM; with IL-4/pSTAT6, 37.9 nM; at JAK1 (Table 3a, read-out: IC50 JAK1), 0.6 nM; with IL-31 (setting [2]), 12.7 nM. For the same compound, the “Dog LM QH” value in data set [1] was <19.9%.

The values are drawn from patent US20240132525A1, “BORON […], CO[…], METHODS AND USES THEREOF” (priority 2022, published 2024).
